In article PMC7381740 (Theranostics, 2020):
Several values for one entry are separate records, joined by “and”; a condition that tells them apart may be missing. Equal entries are not always repeated.

Legend:
[1] = biological target: T1, S1R (Rattus norvegicus, UniProt Q9R0C9); assay: In vitro autoradiography, naive rat brain sections; assay type: binding; details: 2 nM tracer
Experimental: (§1) Sections of frontal (Brodmann areas 8/9) and temporal cortex (Brodmann areas 21/22) were cut from frozen human tissue blocks. Human and rodents sections were mounted on to glass slides (SuperFrost Plus Gold and SuperFrost Plus slides, Thermo Fisher Scientific Inc., MA, USA for human and animal tissues, respectively). For all steps described below, Tris buffer (Trizma pre-set crystals (Sigma, UK), 50 mM, with 120 mM NaCl, with pH adjusted to 7.4 at 4 °C or room temperature) was used. Slides were allowed to defrost then pre-incubated in Tris Buffer at 4 °C for 5min. […] Adjacent sections were incubated with the same solution containing an excess of unlabelled IAM6067 (2 µM) to assess non-specific binding. Next the slides were washed 2 × 2 min in Tris buffer at 4 °C, followed by a quick rinsing in distilled water at 4 °C. Slides were then dried promptly before exposition on Phosphor-Imager plates overnight. Autoradiographs were analysed using AIDA software (Raytest GmbH, Germany). […] Specific binding (total binding minus non-specific binding) in each ROI is expressed as intensity of the photostimulated luminescence (PSL) per pixel.

[2] = biological target: T1, S1R; assay: PET in AMPA excitotoxic lesion model; assay type: in vivo
Experimental: (§2) Animals were maintained normothermic (body temperature: 37.0 ± 0.4 °C) during the surgery through the use of a heating blanket (Homeothermic Blanket Control Unit, Harvard Apparatus Limited®, Edenbridge, Kent, UK). Twenty-four hours later, the rats were anesthetized again as described above and scanned with a 3T cryogen-free MRS 3000 scanner with a quadrature, rat head coil (MR Solutions, Guildford, UK), [35] to assess oedema (i.e. lesion size and location) immediately before the PET scan. Parameters for the T2-weighted RARE sequence were: repetition time = 4800 ms, base echo time = 17 ms, effective echo time = 68 ms, number of echoes = 8, bandwidth = 20 kHz, number of samples = 256, number of views = 240, number of averages = 1 with 25 slices of 1.06 mm, giving a final voxel size of 0.136 × 0.136 × 1.06 mm.
PET data were expressed as SUV.
As the experiments with CM398 were performed later, scans without and with pre-treatment with CM398 were performed in the same animals and therefore were analysed using 2 way ANOVA with repeated measures for ROI and treatment. ANOVA were followed by a Sidak's post-hoc test.

[3] = biological target: T1, S1R; assay: Autoradiography in AMPA-injected rat brain sections; assay type: binding; details: striatum (caudate-putamen + globus pallidus), AMPA rats
Experimental: as §2
Sections of frontal (Brodmann areas 8/9) and temporal cortex (Brodmann areas 21/22) were cut from frozen human tissue blocks. […] Autoradiographs were analysed using AIDA software (Raytest GmbH, Germany). […] Specific binding (total binding minus non-specific binding) in each ROI is expressed as intensity of the photostimulated luminescence (PSL) per pixel.
Specific binding in the ipsi- and contralateral striatum in the rat AMPA model was analysed with a paired t-test.

[4] = biological target: T2, S1R (Homo sapiens, UniProt Q99720); assay: Autoradiography in post-mortem human cortex (controls, subclinical AD, AD); assay type: binding
T2 construct: Post-mortem brain tissues of 23 cases (8 men and 15 women) were obtained from the Manchester Brain Bank; from tissue; host or cells: post-mortem human frontal and temporal cortex (Manchester Brain Bank)
Excerpt: Post-mortem brain tissues of 23 cases (8 men and 15 women) were obtained from the Manchester Brain Bank through appropriate consenting procedures for collection and use of the human brain tissues. Pathological diagnoses were made by an experienced neuropathologist (DM) as previously described, [48] and were in accordance with recent National Institute on Ageing - Alzheimer's Association guidelines for the neuropathological assessment of AD [49]. By such classification, only cases with Braak stages 5 and 6 were classed as definite AD. Cases with Braak Stages >2 & ≤4 were not diagnosed as definite AD, but these could be considered as cases of possible (incipient) AD, thereby representing cases with early changes of AD. Amyloid plaque load per se was not employed for classification of AD, although it is acknowledged that neuritic plaque scores do form the basis of CERAD classification. Clearly, in terms of amyloid plaques alone, there was overlap in amyloid load between cases at Braak stage >2 & ≤4 and those at Braak stages 5 and 6. Subjects were therefore split in three groups based on their Braak stages: controls (Braak ≤2, 8 subjects), subclinical AD (Braak >2 & ≤4, 8 subjects) and AD (Braak >4, 7 subjects). Details of each case are described in Table 1. […] These were obtained from aged patients with no history of neurological disease and no pathological evidence of AD or other degenerative brain disease. […] The average post-mortem delay was also similar for all groups (mean ± SD [min.-max.]: 34.9 ± 11.3 [12]-[46]; 35.8 ± 9.9 [25]-[48] and 41.5 ± 14.2 [24]-[64] hours for controls, subclinical AD and AD groups, respectively). Subsequently to the autoradiography experiments, measurements from frontal cortex of case #3 were not included as the sections had been damaged during the experiments (Table 1).
as §1
Specific binding for human autoradiography across the three groups in both frontal and temporal cortex and for grey and white matter was analysed by mixed-model fitting (brain structures as repeated factor). As this analysis only returned an effect for the brain structures factor and not for the Braak stage, a Sidak's post-hoc test comparing brain regions only was performed.

[5] = biological target: σ1 receptor (S1R); details: cited from earlier work
[6] = biological target: T1, S1R; assay: PET-CT brain uptake at baseline; details: for maximum brain uptake: PET time-activity curve; for average uptake (sum-image 20-60 min post-injection): baseline
Experimental: Sixty minutes PET scans were performed on 23 animals on a Siemens Inveon® PET/CT scanner (Injected dose: 38±11MBq). Eight of them were used for basal uptake. […] Animals scanned on multiple occasions (with/without blocking or different blocking agent) were always scanned at least 24 h apart. […] Animal respiration and temperature were controlled using a pressure-sensitive pad and rectal probe (BioVet, m2m Imaging Corp., Cleveland, OH, USA) and body temperature was maintained at 37 ± 0.7 °C via the interface managed by the BioVet system. […] Briefly, a CT scan was performed prior to the PET acquisition for attenuation correction. The list mode emission data were histogrammed into 3D sinograms of 35 dynamic frames, normalized, corrected for dead-time, attenuation, scatter and radioactive decay, and reconstructed using OSEM3D (16 subsets and 4 iterations) into images of dimensions 128 × 128 × 159 voxels of volume 0.776 × 0.776 × 0.796 mm^3.
PET-CT images were co-registered with the rat MRI template and its associated intracranial mask as published by Schwarz et al. [41] and generously provided by GSK. To co-register the MRI template and PET-CT images, individual brain masks were delineated on each CT image and co-registered with the MRI brain mask using rigid registration with mutual information. Image analysis and quantification was performed using the BrainVisa/Anatomist software (http://www.brainvisa.info) using the geometric transfer matrix (GTM) and ROIopt methods for partial volume correction both described and used previously [42]-[46]. […] PET data were expressed as SUV.

T1 sequence (Q9R0C9 whole entry): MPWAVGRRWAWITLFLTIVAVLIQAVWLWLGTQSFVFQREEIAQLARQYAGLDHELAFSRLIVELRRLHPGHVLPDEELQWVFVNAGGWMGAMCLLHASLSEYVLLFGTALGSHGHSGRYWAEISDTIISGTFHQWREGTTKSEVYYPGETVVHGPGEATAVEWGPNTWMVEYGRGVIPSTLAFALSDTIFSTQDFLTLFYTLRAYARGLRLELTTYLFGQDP
T2 sequence (Q99720 whole entry): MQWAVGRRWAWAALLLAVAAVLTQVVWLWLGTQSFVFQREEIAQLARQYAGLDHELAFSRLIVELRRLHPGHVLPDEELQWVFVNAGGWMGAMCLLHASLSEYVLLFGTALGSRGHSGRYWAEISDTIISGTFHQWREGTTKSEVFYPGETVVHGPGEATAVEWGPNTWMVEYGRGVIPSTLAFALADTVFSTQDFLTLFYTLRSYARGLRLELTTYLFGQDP

FCCOc1ccc(CN2CCN(Cc3cc4ccccc4o3)CC2)cc1 [^18F-IAM6067, N-(2-Benzofuranylmethyl)-N'-[4-(2-fluoroethoxy)benzyl]piperazine]
specific binding ([1]; cingulate cortex): 4.96 ± 0.26 PSL/pixel | specific binding ([1]; hypothalamus): 6.79 ± 0.95 PSL/pixel | specific binding ([1]; pons): 7.24 ± 0.89 PSL/pixel | specific binding ([1]; somatosensory cortex): 4.49 ± 0.51 PSL/pixel | specific binding ([1]; striatum): 4.56 ± 0.42 PSL/pixel | ^18F-IAM6067 uptake, AMPA-lesioned vs control rats (in words) ([2]; ipsi- and contralateral substantia nigra and pons-raphe): significant increase | change in ^18F-IAM6067 uptake (PET) ([2]; lesioned caudate-putamen, 24 h after intrastriatal AMPA 7.5 nmol): -16% and -16 ± 11% | change in ^18F-IAM6067 specific binding, ipsi- vs contralateral [3]: -38 ± 8% and -38% | specific binding ([4]; human frontal grey matter, AD (Braak >4)): 3.27 ± 0.90 PSL/pixel | specific binding ([4]; human frontal grey matter, controls (Braak ≤2)): 2.37 ± 1.09 PSL/pixel | specific binding ([4]; human frontal grey matter, subclinical AD (Braak >2 & ≤4)): 3.11 ± 0.84 PSL/pixel | specific binding ([4]; human temporal grey matter, AD (Braak >4)): 2.91 ± 1.20 PSL/pixel | specific binding ([4]; human temporal grey matter, controls (Braak ≤2)): 2.56 ± 1.24 PSL/pixel | specific binding ([4]; human temporal grey matter, subclinical AD (Braak >2 & ≤4)): 2.98 ± 1.15 PSL/pixel | Ki [5]: 2.6 nM | maximum brain uptake ([6]; amygdala): 3.3 SUV | average uptake (sum-image 20-60 min post-injection) ([6]; caudate/putamen): 2.3 ± 0.1 SUV | average uptake (sum-image 20-60 min post-injection) ([6]; cingulate cortex): 2.3 ± 0.2 SUV | average uptake (sum-image 20-60 min post-injection) ([6]; mesencephalic region): 4.7 ± 0.3 SUV | average uptake (sum-image 20-60 min post-injection) ([6]; pons-raphe): 6.4 ± 0.8 SUV | average uptake (sum-image 20-60 min post-injection) ([6]; substantia nigra): 3.8 ± 0.7 SUV | average uptake (sum-image 20-60 min post-injection) ([6]; temporal cortex): 2.5 ± 0.2 SUV | average uptake (sum-image 20-60 min post-injection) ([6]; thalamus medio-dorsal): 3.9 ± 0.4 SUV | time of maximum brain uptake ([6]; post-injection, amygdala and thalamus medio-dorsal): 2.25 min | maximum brain uptake ([6]; thalamus medio-dorsal): 5.5 SUV
